According to patent publication US9376433B2, “(AZA-)isoquinolinone derivatives” (MERCK PATENT GMBH, priority 2012, dated 2016):

How the values were obtained:
Tankyrase-1 = molecular target: T1, Tankyrase-1 (Homo sapiens, UniProt O95271); experiment: Tankyrase 1 autoparsylation assay (HTRF enzyme assay); type: biochemical; conditions: GST-tagged Tankyrase-1 (1023-1327 aa)
T1 construct: GST-tagged Tankyrase-1 (1023-1327 aa)
Experimental: (§1) Biochemical activity testing of Tankyrase 1 and 2: Autoparsylation assay
(§2) The autoparsylation assay is run in two steps: the enzymatic reaction in which GST-tagged Tankyrase-1, resp Tankyrase-2 transferred biotinylated ADP-ribose to itself from biotinylated NAD as co-substrate and the detection reaction where a time resolved FRET between cryptate labelled anti-GST bound to the GST tag of the enzyme and Xlent® labelled-streptavidin bound the biotin-parsylation residue is analysed. The autoparsylation activity was detectable directly via the increase in HTRF signal.
(§3) The autoparsylation assay is performed as 384-well HTRF® (Cisbio, Codolet, France) assay format in Greiner low volume nb 384-well microtiter plates and is used for high throughput screen. 250 nM GST-tagged Tankyrase-1 (1023-1327 aa), respectively about 250 nM GST-tagged Tankyrase-2 (873-1166 aa) and 5 μM bio-NAD (Biolog, Life science Inst., Bremen, Germany) as co-substrate are incubated in a total volume of 5 μl (50 mM HEPES, 4 mM Mg-chloride, 0.05% Pluronic F-68, 1.4 mM DTT, 0.5% DMSO, pH 7.7) in the absence or presence of the test compound (10 dilution concentrations) for 90 min at 30° C. The reaction is stopped by the addition of 1 μl 50 mM EDTA solution. 2 μl of the detection solution (1.6 μM SA-Xlent® (Cisbio, Codolet, France), 7.4 nM Anti-GST-K® (Eu-labelled anti-GST, Cisbio, Codolet, France) in 50 mM HEPES, 800 mM KF, 0.1% BSA, 20 mM EDTA, 0.1% CHAPS, pH 7.0) are added. After 1 h incubation at room temperature the HTRF is measured with an Envision multimode reader (Perkin Elmer LAS Germany GmbH) at excitation wavelength 340 nm (laser mode) and emission wavelengths 615 nm and 665 nm. The ratio of the emission signals is determined. The full value used is the inhibitor-free reaction. The pharmacological zero value used is XAV-939 (Tocris) in a final concentration of 5 μM. The inhibitory values (IC50) are determined using either the program Symyx Assay Explorer® or Condosseo® from GeneData.

TNKS1 = molecular target: T2, TNKS1 (Homo sapiens, UniProt O95271); experiment: TNKS1 activity ELISA (autoparsylation assay); type: biochemical; conditions: GST-tagged Tnks-1 (1023-1327 aa), luminescence
T2 construct: GST-tagged Tnks-1 (1023-1327 aa, prepared in-house); made in house
T2 sequence (O95271 1023-1327): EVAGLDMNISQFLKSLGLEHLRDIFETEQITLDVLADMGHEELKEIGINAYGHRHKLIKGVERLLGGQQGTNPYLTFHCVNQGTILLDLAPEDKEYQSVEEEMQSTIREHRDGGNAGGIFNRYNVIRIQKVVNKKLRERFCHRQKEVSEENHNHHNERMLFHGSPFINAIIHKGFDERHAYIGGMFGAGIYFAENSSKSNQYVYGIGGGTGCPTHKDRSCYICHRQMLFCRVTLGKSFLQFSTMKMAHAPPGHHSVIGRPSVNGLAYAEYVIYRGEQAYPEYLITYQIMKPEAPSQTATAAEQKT
Experimental: Description of the TNKS1 and TNKS2 ELISA Assay
Biochemical activity testing of TNKS 1 and 2: activity ELISA (Autoparsylation assay)
For analysis of autoparsylation activity of TNKS 1 and 2 an activity ELISA iss performed: In the first step GST tagged TNKS is captured on a Glutathione coated plate. Then the activity assay with biotinylated NAD is performed in the absence/presence of the compounds. During the enzymatic reaction GST tagged TNKS transfers biotinylated ADP-ribose to itself from biotinylated NAD as co-substrate. For the detection streptavidin-HRP conjugate is added that binds to the biotinylated TNKS and is thereby captured to the plates. The amount of biotinylated resp. autoparsylated TNKS is detected with a luminescence substrate for HRP. The level of the luminescence signal correlats directly with the amount of autoparsylated TNKS and therefore with activity of TNKS.
The acitivity ELISA is performed in 384 well Glutathione coated microtiter plates (Express capture Glutathione coated plate, Biocat, Heidelberg, Germany). The plates are pre-equilibrated with PBS. Then the plates are incubated with 50 μl 20 ng/well GST-tagged Tnks-1 (1023-1327 aa, prepared in-house), respectively GST-tagged Tnks-2 (873-1166 aa, prepared in-house) in assay buffer (50 mM HEPES, 4 mM Mg-chloride, 0.05% Pluronic F-68, 2 mM DTT, pH 7.7) overnight at 4° C. The plates are washed 3 times with PBS-Tween-20. The wells are blocked by incubation at room temperature for 20 minutes with 50 μl blocking buffer (PBS, 0.05% Tween-20, 0.5% BSA). Afterwards the plates are washed 3 times with PBS-Tween-20. The enzymatic reaction is performed in 50 μl reaction solution (50 mM HEPES, 4 mM Mg-chloride, 0.05% Pluronic F-68, 1.4 mM DTT, 0.5% DMSO, pH 7.7) with10 μM bio-NAD (Biolog, Life science Inst., Bremen, Germany) as co-substrate in the absence or presence of the test compound (10 dilution concentrations) for 1 hour at 30° C. The reaction is stopped by 3 times washing with PBS-Tween-20. For the detection 50 μl of 20 ng/μl Streptavidin, HRP conjugate (MoBiTec, Göttingen, Germany) in PBS/0.05% Tween-20/0.01% BSA are added and the plates are incubated for 30 minutes at room temperature. After three times washing with PBS-Tween-20 50 μl of SuperSignal ELISA Femto Maximum sensitivity substrate solution (ThermoFisherScientific (Pierce), Bonn, Germany) are added. Following a 1 minute incubation at room temperature luminescence signals are measured with an Envision multimode reader (Perkin Elmer LAS Germany GmbH) at 700 nm. The full value used is the inhibitor-free reaction. The pharmacological zero value used is XAV-939 (Tocris) in a final concentration of 5 μM. The inhibitory values (IC50) are determined using either the program Symyx Assay Explorer® or Condosseo® from GeneData.

tankyrase 1/2 = experiment: Cellular inhibition of tankyrase: increase of Axin2 level in DLD1 cells (Luminex); type: cell-based; conditions: DLD1 colon carcinoma cells, 24 hours, read-out: EC50 tankyrase 1/2 (cell assay)
Experimental: Measurement of Cellular Inhibition of Tankyrase
Since Tankyrases have been described to modulate cellular level of Axin2 (Huang et al., 2009; Nature) the increase of Axin2 level is used as read-out for determination of cellular inhibition of Tankyrases in a Luminex based assay.
Cells of the colon carcinoma cell line DLD1 are plated in 96 well plates with 1.5×10^4 cells per well. Next day, cells are treated with a serial dilution of test compound in seven steps as triplicates with a final DMSO concentration of 0.3%. After 24 hours, cells are lysed in lysis buffer (20 mM Tris/HCl pH 8.0, 150 mM NaCl, 1% NP40, 10% Glycerol) and lysates are cleared by centrifugation through a 96 well filter plate (0.65 μm). Axin2 protein is isolated from cell lysates by incubation with a monoclonal anti-Axin2 antibody (R&D Systems #MAB6078) that is bound to fluorescent carboxybeads. Then, bound Axin2 is specifically detected with a polyclonal anti-Axin2 antibody (Cell Signaling #2151) and an appropriate PE-fluorescent secondary antibody. The amount of isolated Axin2 protein is determined in a Luminex^200 machine (Luminex Corporation) according to the manufacturer's instruction by counting 100 events per well. Inhibition of Tankyrase by test compounds results in higher levels of Axin2 which directly correlates with an increase of detectable fluorescence. As controls cells are treated with solvent alone (neutral control) and with a Tankyrase reference inhibitor IWR-2 (3E-06 M) which refers as control for maximum increase of Axin2. For analysis, the obtained data are normalized against the untreated solvent control and fitted for determination of the EC50 values using the Assay Explorer software (Accelrys).

Tankyrase-2 = molecular target: T3, Tankyrase-2 (Homo sapiens, UniProt Q9H2K2); experiment: Tankyrase 2 autoparsylation assay (HTRF enzyme assay); type: biochemical; conditions: GST-tagged Tankyrase-2 (873-1166 aa)
T3 construct: GST-tagged Tankyrase-2 (873-1166 aa)
T3 sequence (Q9H2K2 873-1166): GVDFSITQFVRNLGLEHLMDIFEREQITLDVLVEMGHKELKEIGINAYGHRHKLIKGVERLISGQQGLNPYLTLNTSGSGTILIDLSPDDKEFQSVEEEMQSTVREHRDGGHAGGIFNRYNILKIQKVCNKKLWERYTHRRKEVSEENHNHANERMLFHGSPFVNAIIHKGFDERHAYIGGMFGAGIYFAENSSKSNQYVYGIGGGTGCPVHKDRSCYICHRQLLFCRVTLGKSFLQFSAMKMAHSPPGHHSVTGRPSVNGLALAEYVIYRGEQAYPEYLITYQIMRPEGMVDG
Experimental: as §1, §2, §3

DLD-1-cancer cells = conditions: DLD-1 cells; Huang et al., 2009, Nature; cited from earlier work

T1 sequence (O95271 1023-1327): as the sequence (O95271 1023-1327) above

SMILES	IC50 (Tankyrase-1)	IC50 (TNKS1)	EC50 (tankyrase 1/2)	IC50 (Tankyrase-2)	growth of DLD-1-cancer cells (DLD-1-cancer cells)
CC(C)(C)c1ccc(-c2cc3cnccc3c(=O)[nH]2)cc1 [Compound A1, 3-(4-tert-butyl-phenyl)-2H-[2,6]naphthyridin-1-one]	< 300 nM	< 300 nM	< 300 nM	0.3 to 3 µM	
COC(=O)c1ccc(-c2cc3ccccc3c(=O)[nH]2)cc1 [Compound A2, 4-(1-oxo-1,2-dihydro-isoquinolin-3-yl)-benzoic acid methyl ester]	< 300 nM		300 to 3000 nM	< 0.3 µM	
COC(=O)c1ccc(-c2cc3ccc(F)cc3c(=O)[nH]2)cc1 [Compound A4, 4-(7-Fluoro-1-oxo-1,2-dihydro-isoquinolin-3-yl)-benzoic acid methyl ester]	300 to 3000 nM		300 to 3000 nM	0.3 to 3 µM	
Cc1ccc2cc(-c3ccc(C(C)(C)O)cc3)[nH]c(=O)c2c1 [Compound A7, 3-[4-(1-hydroxy-1-methyl-ethyl)-phenyl]-7-methyl-2H-isoquinolin-1-one]	300 to 3000 nM		300 to 3000 nM	0.3 to 3 µM	
O=c1[nH]c(-c2ccc(CO)cc2)cc2ccccc12 [Compound A8, 3-(4-hydroxymethyl-phenyl)-2H-isoquinolin-1-one]	< 300 nM		< 300 nM	0.3 to 3 µM	
CC(C)(F)c1ccc(-c2cc3ccccc3c(=O)[nH]2)cc1 [Compound A13, 3-[4-(1-fluoro-1-methyl-ethyl)-phenyl]-2H-isoquinolin-1-one]	< 300 nM		300 to 3000 nM	0.3 to 3 µM	
Cn1cc(-c2ccc(-c3cc4cnccc4c(=O)[nH]3)cc2)cn1 [Compound A19, 3-[4-(1-Methyl-1H-pyrazol-4-yl)-phenyl]-2H-[2,6]naphthyridin-1-one]	300 to 3000 nM			0.3 to 3 µM	
CC1(c2ccc(-c3cc4ccc(F)cc4c(=O)[nH]3)cc2)CCCO1 (stereo not drawn) [Compound A21, 7-fluoro-3-[4-(2-methyltetrahydrofuran-2-yl)phenyl]-2H-isoquinolin-1-one]	< 300 nM		300 to 3000 nM	0.3 to 3 µM	
CC(C)(O)c1ccc(-c2cc3ccc(Cl)cc3c(=O)[nH]2)cc1 [Compound A25, 7-chloro-3-[4-(1-hydroxy-1-methyl-ethyl)phenyl]-2H-isoquinolin-1-one]	< 300 nM		300 to 3000 nM	0.3 to 3 µM	
Cc1ccc(-c2cc3c(C(F)(F)F)cccc3c(=O)[nH]2)cc1 [Compound A30, 3-(p-tolyl)-5-(trifluoromethyl)-2H-isoquinolin-1-one]	300 to 3000 nM			3 to 50 µM	
Cn1cc(-c2ccc(-c3cc4ccc(Cl)cc4c(=O)[nH]3)cc2)cn1 [Compound A32, 7-chloro-3-[4-(1-methyl-1H-pyrazol-4-yl)-phenyl]-2H-isoquinolin-1-one]	< 300 nM		300 to 3000 nM	0.3 to 3 µM	
Oc1nc(-c2ccc(C(F)(F)F)cc2)nc2c1CSCC2 [XAV939]					inhibits growth
